Test results reported in ChEMBL document CHEMBL4184109, “Design, synthesis, and structure-activity relationship studies of novel tetrazole antifungal agents with potent activity, broad antifungal spectrum and high selectivity” (Bioorg Med Chem Lett, 2018).
Converted amounts (≈) assume the structure as drawn.

Key:
Type in all cases: functional
Candida albicans [1] = assay: Antifungal activity against Candida albicans Y0109 after 24 hrs by serial dilution method; settings: Y0109, 24 h
Candida albicans [2] = assay: Antifungal activity against Candida albicans SC5314 after 24 hrs by serial dilution method; settings: SC5314, 24 h
Candida parapsilosis = assay: Antifungal activity against Candida parapsilosis ATCC 22019 after 24 hrs by serial dilution method; settings: Lodderomyces parapsilosis, ATCC 22019, 24 h
Nakaseomyces glabratus = assay: Antifungal activity against Candida glabrata after 24 hrs by serial dilution method
Cryptococcus neoformans = assay: Antifungal activity against Cryptococcus neoformans after 72 hrs by serial dilution method
Aspergillus fumigatus = assay: Antifungal activity against Aspergillus fumigatus after 48 hrs by serial dilution method
Trichophyton rubrum = assay: Antifungal activity against Trichophyton rubrum by serial dilution method
Nannizzia gypsea = assay: Antifungal activity against Microsporum gypseum by serial dilution method

## O=c1n(-c2ccc(C(F)(F)C(O)(Cn3cnnn3)c3ccc(F)cc3F)nc2)cnn1CCC1CCCCC1 (configuration not stated)
Candida albicans [1]
  MIC80: 0.5 µg/mL (≈ 0.915 µM)
Candida albicans [2]
  MIC80: 1 µg/mL (≈ 1.83 µM)
Candida parapsilosis
  MIC80: 0.5 µg/mL (≈ 0.915 µM)
Nakaseomyces glabratus
  MIC80: 1 µg/mL (≈ 1.83 µM)
Cryptococcus neoformans
  MIC80: 4 µg/mL (≈ 7.32 µM)
Aspergillus fumigatus
  MIC80: > 64 µg/mL
Trichophyton rubrum
  MIC80: 8 µg/mL (≈ 14.6 µM)
Nannizzia gypsea
  MIC80: 4 µg/mL (≈ 7.32 µM)

## CSc1ccc(Cn2ncn(-c3ccc(C(F)(F)C(O)(Cn4cnnn4)c4ccc(F)cc4F)nc3)c2=O)cc1 (configuration not stated)
Candida albicans [1]
  MIC80: 4 µg/mL (≈ 6.99 µM)
Candida albicans [2]
  MIC80: 4 µg/mL (≈ 6.99 µM)
Candida parapsilosis
  MIC80: 4 µg/mL (≈ 6.99 µM)
Nakaseomyces glabratus
  MIC80: 4 µg/mL (≈ 6.99 µM)
Cryptococcus neoformans
  MIC80: 2 µg/mL (≈ 3.49 µM)
Aspergillus fumigatus
  MIC80: > 64 µg/mL

## CS(=O)(=O)CCn1ncn(-c2ccc(C(F)(F)C(O)(Cn3cnnn3)c3ccc(F)cc3F)nc2)c1=O (configuration not stated)
Candida albicans [1]
  MIC80: > 8 µg/mL
Candida albicans [2]
  MIC80: > 8 µg/mL
Candida parapsilosis
  MIC80: > 8 µg/mL
Nakaseomyces glabratus
  MIC80: > 8 µg/mL
Cryptococcus neoformans
  MIC80: > 8 µg/mL
Aspergillus fumigatus
  MIC80: > 8 µg/mL

## CCn1ncn(-c2ccc(C(F)(F)C(O)(Cn3cnnn3)c3ccc(F)cc3F)nc2)c1=O (configuration not stated)
Candida albicans [1]
  MIC80: 2 µg/mL (≈ 4.31 µM)
Candida albicans [2]
  MIC80: 2 µg/mL (≈ 4.31 µM)
Candida parapsilosis
  MIC80: 2 µg/mL (≈ 4.31 µM)
Nakaseomyces glabratus
  MIC80: 8 µg/mL (≈ 17.2 µM)
Cryptococcus neoformans
  MIC80: 8 µg/mL (≈ 17.2 µM)
Aspergillus fumigatus
  MIC80: > 8 µg/mL

## CS(=O)(=O)c1ccc(Cn2ncn(-c3ccc(C(F)(F)C(O)(Cn4cnnn4)c4ccc(F)cc4F)nc3)c2=O)cc1 (configuration not stated)
Candida albicans [1]
  MIC80: > 64 µg/mL
Candida albicans [2]
  MIC80: > 64 µg/mL
Candida parapsilosis
  MIC80: > 64 µg/mL
Nakaseomyces glabratus
  MIC80: > 64 µg/mL
Cryptococcus neoformans
  MIC80: > 64 µg/mL
Aspergillus fumigatus
  MIC80: > 64 µg/mL

## O=c1n(-c2ccc(C(F)(F)C(O)(Cn3cnnn3)c3ccc(F)cc3F)nc2)cnn1Cc1ccccn1 (configuration not stated)
Candida albicans [1]
  MIC80: 4 µg/mL (≈ 7.58 µM)
Candida albicans [2]
  MIC80: 2 µg/mL (≈ 3.79 µM)
Candida parapsilosis
  MIC80: 16 µg/mL (≈ 30.3 µM)
Nakaseomyces glabratus
  MIC80: 2 µg/mL (≈ 3.79 µM)
Cryptococcus neoformans
  MIC80: 1 µg/mL (≈ 1.9 µM)
Aspergillus fumigatus
  MIC80: > 64 µg/mL

## OC(Cn1cncn1)(Cn1cncn1)c1ccc(F)cc1F [FLUCONAZOLE]
Candida albicans [1]
  MIC80: 2 µg/mL (≈ 6.53 µM)
Candida albicans [2]
  MIC80: 0.5 µg/mL (≈ 1.63 µM)
Candida parapsilosis
  MIC80: 1 µg/mL (≈ 3.27 µM)
Nakaseomyces glabratus
  MIC80: 0.5 µg/mL (≈ 1.63 µM)
Cryptococcus neoformans
  MIC80: 0.5 µg/mL (≈ 1.63 µM)
Aspergillus fumigatus
  MIC80: > 64 µg/mL
Trichophyton rubrum
  MIC80: 2 µg/mL (≈ 6.53 µM)
Nannizzia gypsea
  MIC80: 8 µg/mL (≈ 26.1 µM)

## COC1CCC(n2ncn(-c3ccc(C(F)(F)C(O)(Cn4cnnn4)c4ccc(F)cc4F)nc3)c2=O)CC1 (configuration not stated)
Candida albicans [1]
  MIC80: 0.5 µg/mL (≈ 0.912 µM)
Candida albicans [2]
  MIC80: 1 µg/mL (≈ 1.82 µM)
Candida parapsilosis
  MIC80: 1 µg/mL (≈ 1.82 µM)
Nakaseomyces glabratus
  MIC80: 4 µg/mL (≈ 7.29 µM)
Cryptococcus neoformans
  MIC80: 1 µg/mL (≈ 1.82 µM)
Aspergillus fumigatus
  MIC80: > 64 µg/mL
Trichophyton rubrum
  MIC80: 8 µg/mL (≈ 14.6 µM)
Nannizzia gypsea
  MIC80: > 64 µg/mL

## Cc1ccc(Cn2ncn(-c3ccc(C(F)(F)C(O)(Cn4cnnn4)c4ccc(F)cc4F)nc3)c2=O)cc1 (configuration not stated)
Candida albicans [1]
  MIC80: 1 µg/mL (≈ 1.85 µM)
Candida albicans [2]
  MIC80: 1 µg/mL (≈ 1.85 µM)
Candida parapsilosis
  MIC80: 0.25 µg/mL (≈ 0.463 µM)
Nakaseomyces glabratus
  MIC80: 2 µg/mL (≈ 3.7 µM)
Cryptococcus neoformans
  MIC80: 2 µg/mL (≈ 3.7 µM)
Aspergillus fumigatus
  MIC80: > 8 µg/mL

## O=c1n(-c2ccc(C(F)(F)C(O)(Cn3cnnn3)c3ccc(F)cc3F)nc2)cnn1CCO (configuration not stated)
Candida albicans [1]
  MIC80: > 8 µg/mL
Candida albicans [2]
  MIC80: > 8 µg/mL
Candida parapsilosis
  MIC80: > 8 µg/mL
Nakaseomyces glabratus
  MIC80: > 8 µg/mL
Cryptococcus neoformans
  MIC80: > 8 µg/mL
Aspergillus fumigatus
  MIC80: > 8 µg/mL

## O=c1n(-c2ccc(C(F)(F)C(O)(Cn3cnnn3)c3ccc(F)cc3F)nc2)cnn1C1CCCCCC1 (configuration not stated)
Candida albicans [1]
  MIC80: 0.5 µg/mL (≈ 0.939 µM)
Candida albicans [2]
  MIC80: 1 µg/mL (≈ 1.88 µM)
Candida parapsilosis
  MIC80: 0.5 µg/mL (≈ 0.939 µM)
Nakaseomyces glabratus
  MIC80: 1 µg/mL (≈ 1.88 µM)
Cryptococcus neoformans
  MIC80: 0.5 µg/mL (≈ 0.939 µM)
Aspergillus fumigatus
  MIC80: > 64 µg/mL
Nannizzia gypsea
  MIC80: > 64 µg/mL

## O=c1n(-c2ccc(C(F)(F)C(O)(Cn3cnnn3)c3ccc(F)cc3F)nc2)cnn1Cc1ccc(C(F)(F)F)cc1 (configuration not stated)
Candida albicans [1]
  MIC80: 1 µg/mL (≈ 1.68 µM)
Candida albicans [2]
  MIC80: 2 µg/mL (≈ 3.36 µM)
Candida parapsilosis
  MIC80: 0.5 µg/mL (≈ 0.841 µM)
Nakaseomyces glabratus
  MIC80: 4 µg/mL (≈ 6.73 µM)
Cryptococcus neoformans
  MIC80: 4 µg/mL (≈ 6.73 µM)
Aspergillus fumigatus
  MIC80: > 8 µg/mL

## CC(O)Cn1ncn(-c2ccc(C(F)(F)C(O)(Cn3cnnn3)c3ccc(F)cc3F)nc2)c1=O (configuration not stated)
Candida albicans [1]
  MIC80: > 8 µg/mL
Candida albicans [2]
  MIC80: > 8 µg/mL
Candida parapsilosis
  MIC80: 8 µg/mL (≈ 16.2 µM)
Nakaseomyces glabratus
  MIC80: > 8 µg/mL
Cryptococcus neoformans
  MIC80: 8 µg/mL (≈ 16.2 µM)
Aspergillus fumigatus
  MIC80: > 8 µg/mL

## CC1(C)CCC(n2ncn(-c3ccc(C(F)(F)C(O)(Cn4cnnn4)c4ccc(F)cc4F)nc3)c2=O)CC1 (configuration not stated)
Candida albicans [1]
  MIC80: 4 µg/mL (≈ 7.32 µM)
Candida albicans [2]
  MIC80: 4 µg/mL (≈ 7.32 µM)
Candida parapsilosis
  MIC80: 4 µg/mL (≈ 7.32 µM)
Nakaseomyces glabratus
  MIC80: 8 µg/mL (≈ 14.6 µM)
Cryptococcus neoformans
  MIC80: 4 µg/mL (≈ 7.32 µM)
Aspergillus fumigatus
  MIC80: > 64 µg/mL
Trichophyton rubrum
  MIC80: 0.125 µg/mL (≈ 0.229 µM)
Nannizzia gypsea
  MIC80: > 64 µg/mL

## CC(C)n1ncn(-c2ccc(C(F)(F)C(O)(Cn3cnnn3)c3ccc(F)cc3F)nc2)c1=O (configuration not stated)
Candida albicans [1]
  MIC80: 1 µg/mL (≈ 2.09 µM)
Candida albicans [2]
  MIC80: 1 µg/mL (≈ 2.09 µM)
Candida parapsilosis
  MIC80: 0.5 µg/mL (≈ 1.05 µM)
Nakaseomyces glabratus
  MIC80: 2 µg/mL (≈ 4.18 µM)
Cryptococcus neoformans
  MIC80: 8 µg/mL (≈ 16.7 µM)
Aspergillus fumigatus
  MIC80: > 8 µg/mL

## CCC(C)n1ncn(-c2ccc(C(F)(F)C(O)(Cn3cnnn3)c3ccc(F)cc3F)nc2)c1=O (configuration not stated)
Candida albicans [1]
  MIC80: 1 µg/mL (≈ 2.03 µM)
Candida albicans [2]
  MIC80: 1 µg/mL (≈ 2.03 µM)
Candida parapsilosis
  MIC80: 0.25 µg/mL (≈ 0.508 µM)
Nakaseomyces glabratus
  MIC80: 2 µg/mL (≈ 4.06 µM)
Cryptococcus neoformans
  MIC80: 4 µg/mL (≈ 8.12 µM)
Aspergillus fumigatus
  MIC80: > 8 µg/mL

## O=c1n(-c2ccc(C(F)(F)C(O)(Cn3cnnn3)c3ccc(F)cc3F)nc2)cnn1CC1CCCCC1 (configuration not stated)
Candida albicans [1]
  MIC80: 0.5 µg/mL (≈ 0.939 µM)
Candida albicans [2]
  MIC80: 1 µg/mL (≈ 1.88 µM)
Candida parapsilosis
  MIC80: 0.25 µg/mL (≈ 0.469 µM)
Nakaseomyces glabratus
  MIC80: 1 µg/mL (≈ 1.88 µM)
Cryptococcus neoformans
  MIC80: 1 µg/mL (≈ 1.88 µM)
Aspergillus fumigatus
  MIC80: > 64 µg/mL
Trichophyton rubrum
  MIC80: 2 µg/mL (≈ 3.76 µM)
Nannizzia gypsea
  MIC80: 4 µg/mL (≈ 7.51 µM)

## COCCOc1ccc(Cn2ncn(-c3ccc(C(F)(F)C(O)(Cn4cnnn4)c4ccc(F)cc4F)nc3)c2=O)cc1 (configuration not stated)
Candida albicans [1]
  MIC80: 1 µg/mL (≈ 1.67 µM)
Candida albicans [2]
  MIC80: 1 µg/mL (≈ 1.67 µM)
Candida parapsilosis
  MIC80: 2 µg/mL (≈ 3.33 µM)
Nakaseomyces glabratus
  MIC80: 2 µg/mL (≈ 3.33 µM)
Cryptococcus neoformans
  MIC80: 0.5 µg/mL (≈ 0.833 µM)
Aspergillus fumigatus
  MIC80: > 64 µg/mL

## O=c1n(-c2ccc(C(F)(F)C(O)(Cn3cnnn3)c3ccc(F)cc3F)nc2)cnn1C1CCC(F)(F)CC1 (configuration not stated)
Candida albicans [1]
  MIC80: 0.5 µg/mL (≈ 0.902 µM)
Candida albicans [2]
  MIC80: 1 µg/mL (≈ 1.8 µM)
Candida parapsilosis
  MIC80: 0.5 µg/mL (≈ 0.902 µM)
Nakaseomyces glabratus
  MIC80: 2 µg/mL (≈ 3.61 µM)
Cryptococcus neoformans
  MIC80: 0.5 µg/mL (≈ 0.902 µM)
Aspergillus fumigatus
  MIC80: > 64 µg/mL
Trichophyton rubrum
  MIC80: 2 µg/mL (≈ 3.61 µM)
Nannizzia gypsea
  MIC80: > 64 µg/mL
